Test system: adult mongrel dogs
Test: Comparative racemate and enantiomer hemodynamic testing in pentobarbital anesthetized open-chest dogs
Format: in vivo
Conditions: for In vivo inotropic ED40, i.v.: Table I summary, dose increasing contractile force by 40%; for In vivo inotropic ED40, i.v. / CF ED40 (µg/kg) with 95% F.L.: dogs; for CO Percent Change from Control: cardiac output; for CO Percent Change from Control / CF Percent Change from Control / HR Percent Change from Control / LVEDP Percent Change from Control / MAP Percent Change from Control / dP/dtmax Percent Change from Control / RAP Percent Change from Control / SV Percent Change from Control / SW Percent Change from Control / TPR Percent Change from Control: anesthetized open-chest dogs; for CF Percent Change from Control: contractile force; for CF ED40 (µg/kg) with 95% F.L.: dose causing a 40% increase in contractility above baseline, from dose-response regression lines, i.v. infusion; for HR Percent Change from Control: heart rate; for LVEDP Percent Change from Control: left ventricular end diastolic pressure; for MAP Percent Change from Control: mean blood pressure; for dP/dtmax Percent Change from Control: peak rate of rise in left ventricular pressure; for RAP Percent Change from Control: right atrial pressure; for SV Percent Change from Control: stroke volume (CO/HR x 1000); for SW Percent Change from Control: stroke work; for TPR Percent Change from Control: total peripheral resistance
Method: Adult mongrel dogs weighing approximately l0-l4 kg were anesthetized with sodium pentobarbital (35 mg/kg, i.p.) and artificially respired. A femoral artery was cannulated to measure mean arterial pressure (MAP) and a femoral vein was cannulated for administering compounds. A Millar microtip pressure transducer was placed in the left ventricle via the left carotid artery to measure left ventricular end diastolic pressure (EDP). pressure pulses triggered a cardiotachometer for determination of heart rate (HR) while the left ventricular pressure waveform was differentiated using a Gould differentiating amplifier to yield dP/dtmax, an index of contractility. A right thoractomy was performed at the fourth intercostal space and the pericardial sac was opened. An externally calibrated Walton-Brodie strain gauge arch was sutured to the right ventricular free wall and stretched to produce a baseline force of approximately l00g. Subsequent changes in right ventricular contractile force (CF) were measured from this baseline. A Carolina electromagnetic flow probe was placed on the ascending aorta to estimate cardiac output (CO). A flexible fluid-filled catheter was inserted into the tip of the right atrium to measure right atrial pressure (RAP). Needle electrodes were placed in the appropriate limbs to record a lead II electrocardiogram (ECG). The following formulas were used to calculate derived parameters: Stroke volume (SV) = CO/HR x l000 Stroke work (SW) = ([…]) x SV Total peripheral resistance (TPR) = (MAP-EDP)/CO
Following surgery and stabilization of hemodynamic parameters, an i.v. infusion of dopamine (l0-l5 µg/kg/min for 3 min) was administered with a Harvard infusion pump to assess responsiveness to positive inotropic stimulation. Baseline hemodynamic values were obtained immediately prior to drug infusion. Responses were continuously monitored on a recorder (Gould 2800) and data collection was facilitated by the use of a Buxco cardiovascular analyzer and data logger.
In the comparative testing a stock solution of each enantiomer (l mg/ml) was prepared fresh daily and diluted before use. Compounds were dissolved in a small volume of dimethylformamide (DMF) and diluted with saline for a final concentration of l5% DMF. Further dilutions were made with a l5% DMF solution.
In the comparative testing each compound was administered in cumulative doses to separate dogs. Data were obtained at the end of each dose. (±) Bemoradan and (+) Bemordan were infused at cumulative doses of 5, l5, 35 and 75 µg/kg, administered with a Harvard infusion pump for 5 minutes each at rates of 0.56, l.l, 2.2, and […], respectively. (-) Bemoradan was given at doses of 5, l5 and 35 µg/kg following the same protocol. The high dose of the (-) isomer was not administered as a means of conserving compound.
Hemodynamic results were expressed as the percent change from pre-drug baseline values and compared using a Dunnett's test with a criterion for significance of p < 0.05. Contractile force ED₄₀ values (i.e., the dose which increased contractile force by 40%) were calculated from dose-response regression lines.

Structure (SMILES): CC1CC(=O)NN=C1c1ccc2c(c1)OCC(=O)N2 (single isomer, unassigned; isomer 6) [(+) isomer, 6-(3,4-dihydro-3-oxo-l,4(2H)-benzoxazin-7-yl)-2,3,4,5-tetrahydro-5-methyl-pyridazin-3-one]
- In vivo inotropic ED40, i.v.: 0.0423 mg/kg
- CO Percent Change from Control (cumulative i.v. dose 5 µg/kg): 2.0±1.4%
- CO Percent Change from Control (cumulative i.v. dose 15 µg/kg): 4.8±2.8%
- CO Percent Change from Control (cumulative i.v. dose 35 µg/kg): 10.6±5.9%
- CO Percent Change from Control (cumulative i.v. dose 75 µg/kg): 13.4±8.5%
- CF Percent Change from Control (cumulative i.v. dose 5 µg/kg): 4.3±2.7%
- CF Percent Change from Control (cumulative i.v. dose 15 µg/kg): 11.8±3.3%
- CF Percent Change from Control (cumulative i.v. dose 35 µg/kg): 29.5±5.2%
- CF Percent Change from Control (cumulative i.v. dose 75 µg/kg): 59.5±7.2%
- CF ED40 (µg/kg) with 95% F.L.: 42.3 (33.5 - 56.7) µg/kg
- HR Percent Change from Control (cumulative i.v. dose 5 µg/kg): -0.7±0.8%
- HR Percent Change from Control (cumulative i.v. dose 15 µg/kg): 1.2±0.8%
- HR Percent Change from Control (cumulative i.v. dose 35 µg/kg): 4.5±1.0%
- HR Percent Change from Control (cumulative i.v. dose 75 µg/kg): 10.6±3.7%
- LVEDP Percent Change from Control (cumulative i.v. dose 5 µg/kg): -3.4±3.6%
- LVEDP Percent Change from Control (cumulative i.v. dose 15 µg/kg): -4.9±4.8%
- LVEDP Percent Change from Control (cumulative i.v. dose 35 µg/kg): -7.4±5.7%
- LVEDP Percent Change from Control (cumulative i.v. dose 75 µg/kg): -11.2±7.1%
- MAP Percent Change from Control (cumulative i.v. dose 5 µg/kg): -1.4±1.1%
- MAP Percent Change from Control (cumulative i.v. dose 15 µg/kg): -1.8±1.7%
- MAP Percent Change from Control (cumulative i.v. dose 35 µg/kg): -2.2±2.2%
- MAP Percent Change from Control (cumulative i.v. dose 75 µg/kg): -3.8±2.8%
- dP/dtmax Percent Change from Control (cumulative i.v. dose 5 µg/kg): 2.8±1.0%
- dP/dtmax Percent Change from Control (cumulative i.v. dose 15 µg/kg): 7.3±1.8%
- dP/dtmax Percent Change from Control (cumulative i.v. dose 35 µg/kg): 18.9±3.6%
- dP/dtmax Percent Change from Control (cumulative i.v. dose 75 µg/kg): 37.0±6.4%
- RAP Percent Change from Control (cumulative i.v. dose 5 µg/kg): -10.6±8.5%
- RAP Percent Change from Control (cumulative i.v. dose 15 µg/kg): -5.8±9.7%
- RAP Percent Change from Control (cumulative i.v. dose 35 µg/kg): -4.2±8.4%
- RAP Percent Change from Control (cumulative i.v. dose 75 µg/kg): -21.7±13.3%
- SV Percent Change from Control (cumulative i.v. dose 5 µg/kg): 2.5±0.7%
- SV Percent Change from Control (cumulative i.v. dose 15 µg/kg): 4.0±2.4%
- SV Percent Change from Control (cumulative i.v. dose 35 µg/kg): 6.8±6.1%
- SV Percent Change from Control (cumulative i.v. dose 75 µg/kg): 6.1±9.1%
- SW Percent Change from Control (cumulative i.v. dose 5 µg/kg): 0.7±1.3%
- SW Percent Change from Control (cumulative i.v. dose 15 µg/kg): 1.7±3.5%
- SW Percent Change from Control (cumulative i.v. dose 35 µg/kg): 4.4±7.3%
- SW Percent Change from Control (cumulative i.v. dose 75 µg/kg): 1.9±9.9%
- TPR Percent Change from Control (cumulative i.v. dose 5 µg/kg): -3.6±0.7%
- TPR Percent Change from Control (cumulative i.v. dose 15 µg/kg): -6.6±1.7%
- TPR Percent Change from Control (cumulative i.v. dose 35 µg/kg): -11.3±3.7%
- TPR Percent Change from Control (cumulative i.v. dose 75 µg/kg): -14.4±5.3%

Structure (SMILES): CC1CC(=O)NN=C1c1ccc2c(c1)OCC(=O)N2 (single isomer, unassigned; isomer 6) [(-) isomer, 6-(3,4-dihydro-3-oxo-l,4(2H)-benzoxazin-7-yl)-2,3,4,5-tetrahydro-5-methyl-pyridazin-3-one]
- Potency Difference (-vs+), In vivo inotropic ED40, i.v. ((-) isomer versus (+) isomer): 7 x
- In vivo inotropic ED40, i.v.: 0.0057 mg/kg
- CO Percent Change from Control (cumulative i.v. dose 5 µg/kg): 2.9±0.5%
- CO Percent Change from Control (cumulative i.v. dose 15 µg/kg): 0.8±1.9%
- CO Percent Change from Control (cumulative i.v. dose 35 µg/kg): -3.4±2.4%
- CF Percent Change from Control (cumulative i.v. dose 5 µg/kg): 28.3±4.4%
- CF Percent Change from Control (cumulative i.v. dose 15 µg/kg): 119.9±18.8%
- CF Percent Change from Control (cumulative i.v. dose 35 µg/kg): 187.2±28.9%
- CF ED40 (µg/kg) with 95% F.L.: 5.7 (2.9 - 8.3) µg/kg
- HR Percent Change from Control (cumulative i.v. dose 5 µg/kg): -3.1±0.5%
- HR Percent Change from Control (cumulative i.v. dose 15 µg/kg): 10.5±1.2%
- HR Percent Change from Control (cumulative i.v. dose 35 µg/kg): 17.1±3.6%
- LVEDP Percent Change from Control (cumulative i.v. dose 5 µg/kg): -10.6±4.4%
- LVEDP Percent Change from Control (cumulative i.v. dose 15 µg/kg): -20.7±5.1%
- LVEDP Percent Change from Control (cumulative i.v. dose 35 µg/kg): -25.1±8.0%
- MAP Percent Change from Control (cumulative i.v. dose 5 µg/kg): -7.4±3.4%
- MAP Percent Change from Control (cumulative i.v. dose 15 µg/kg): -12.8±4.5%
- MAP Percent Change from Control (cumulative i.v. dose 35 µg/kg): -18.7±4.3%
- dP/dtmax Percent Change from Control (cumulative i.v. dose 5 µg/kg): 11.7±5.6%
- dP/dtmax Percent Change from Control (cumulative i.v. dose 15 µg/kg): 41.6±12.3%
- dP/dtmax Percent Change from Control (cumulative i.v. dose 35 µg/kg): 58.0±14.5%
- RAP Percent Change from Control (cumulative i.v. dose 5 µg/kg): 3.8±11.4%
- RAP Percent Change from Control (cumulative i.v. dose 15 µg/kg): -0.9±16.4%
- RAP Percent Change from Control (cumulative i.v. dose 35 µg/kg): -1.4±16.0%
- SV Percent Change from Control (cumulative i.v. dose 5 µg/kg): 0.06±0.9%
- SV Percent Change from Control (cumulative i.v. dose 15 µg/kg): -8.4±1.8%
- SV Percent Change from Control (cumulative i.v. dose 35 µg/kg): -15.2±4.0%
- SW Percent Change from Control (cumulative i.v. dose 5 µg/kg): -7.8±4.2%
- SW Percent Change from Control (cumulative i.v. dose 15 µg/kg): -19.8±6.3%
- SW Percent Change from Control (cumulative i.v. dose 35 µg/kg): -29.7±7.7%
- TPR Percent Change from Control (cumulative i.v. dose 5 µg/kg): -10.2±5.2%
- TPR Percent Change from Control (cumulative i.v. dose 15 µg/kg): -12.8±7.5%
- TPR Percent Change from Control (cumulative i.v. dose 35 µg/kg): -14.9±5.1%

From patent publication EP0509845A1, “(+) and (-) enantiomers of 5-aliphatic-6-(benzoxazinyl- or benzothiazinyl)-2,3,4,5-tetrahydropyridazin-3-ones” (ORTHO PHARMACEUTICAL CORPORATION, priority 1991, dated 1992)
